From US20090062302A1, “Jak2 Tyrosine Kinase Inhibition” (priority 2006, published 2009)

Test system: patients with JAK2 positive refractory MPD
Experiment: Clinical trial in patients with JAK2 positive refractory MPD
Type: in vivo, human
Conditions: one trial, eight patients

## Cc1cc(Nc2cc(N3CCN(C)CC3)nc(Sc3ccc(NC(=O)C4CC4)cc3)n2)n[nH]1 [Compound I, Cyclopropane carboxylic acid {4-[4-(4-methyl-piperazin-1-yl)-6-(5-methyl-2H-pyrazol-3-ylamino)-pyrimidin-2-ylsulphanyl]-phenyl}-amide]
  patients who achieved an objective response: six out of eight
